From US8652540B2, “Method of using rhein for treating fibrotic conditions and tumors” (priority 2012, dated 2014) come the findings set out here.

Marks after values point to notes of the source that are not given here.

For one data set, the system named is Acta2. As to the kind of experiment: Real-time PCR, TGF-β-stimulated LTC-14 cells: Acta2. In kind it is cell-based, rat. Conditions: Rhein at 1, 10 and 100 μM; TGF-β 5 ng/mL. An excerpt: (§1) The synthesized cDNA template was applied to amplifications with rat-specific primers for Tgf-β1, Acta2, Col1-α1 and Mmp2 in a real-time PCR sequencer. Expression of the gene of interest was expressed as a Ct value and normalized to the internal control Gapdh. […] After amplifications by real-time PCR, expression of the gene of interest was expressed as a Ct value and normalized to the internal control Gapdh.
On the technique in general: Real-time PCR tracks product formation cycle by cycle.

Data set [1] relates to α-SMA. As to the kind of experiment: Immunofluorescence assay for α-SMA in TGF-β-stimulated LTC-14 cells. In kind it is cell-based, rat. Conditions: TGF-β 5 ng/mL, Rhein 10 μM. As to the method: To study the effect of Rhein on TGF-β induced expression of fibrotic filament formation, LTC-14 cells were grown on poly-L-lysine coated glass coverslips at a density of 1×10^5 in a 24-well plate pre-incubated with TGF-β (5 ng/mL) for 24 hours before the treatment with or without Rhein (10 μM). At the time of harvest, cells were subjected to immunofluorescence assay for α-SMA immunoreactivities.

A short description of data set [2]: Pancreatic weight and H&E histology, cerulein-induced chronic pancreatitis mice. In kind it is in vivo, C57BL6 mice. How it is done: (§2) C57BL6 mice at age of 6 to 8 weeks with body weight in the range of 20 to 24 grams were used in these experiments. Mice were randomly assigned into 5 groups. Control group received saline injections only; Rhein group was fed with Rhein (≧98% pure) dissolved in 0.5% sodium carboxymethyl cellulose (Sigma, USA) in a single dose of 0.4 mL at 50 mg/kg/day for 6 weeks; Cerulein group received 6 cerulein injections at 50 μg/kg three times a week for 6 weeks; Cer+Rh 6w group received cerulein injections same as Cerulein group plus oral gavage of a single dose of Rhein at 50 mg/kg/day from the first day of experimental period till the end in a total of 6 weeks; Cer+Rh 3w group received cerulein injections same as Cerulein group and Cer+Rh 6w group, but was given with Rhein at 50 mg/kg/day starting the first day of week 4 till the end of experiment in a total of 3 weeks (n=6/group). Upon scarification, pancreata were immediately removed, weighed, trimmed from fat and fixed in 4% paraformaldehyde-phosphate buffered saline (PBS) overnight at 4° C. Samples were then processed, embedded in paraffin wax, sectioned and subjected to Hematoxylin-eosin (H & E) staining or Sirius Red staining Levels of TNF-α· in animal serum samples were determined using commercial ELISA kits. Proteins extracted from pancreatic tissues were subjected to Western blotting analyses.

The test system of a further data set is fibronectin 1 (FN1). Nature of the data set: Western blotting of fibronectin in pancreatic tissues of CP mice. In kind it is in vivo, C57BL6 mice. Conditions: CP mice treated with Rhein vs non-Rhein-treated CP mice. How it is done: as §2
Another data set concerns collagen. Nature of the data set: Sirius Red staining of collagenous proteins in pancreas of CP mice. In kind it is in vivo, C57BL6 mice. How it is done:
as §2

The test system of a further data set is Col1-α1. Nature of the data set: Real-time PCR, TGF-β-stimulated LTC-14 cells: Col1-α1. In kind it is cell-based, rat. Conditions: Rhein at 1, 10 and 100 μM; TGF-β 5 ng/mL.
Text: as §1

A further data set concerns TNF-α. As to the kind of experiment: Serum TNF-α by ELISA, cerulein-induced chronic pancreatitis mice. In kind it is in vivo, C57BL6 mice. As to the method:
as §2
Background: In an ELISA, binding on a coated surface is turned into a signal by an enzyme label.

Data set [3] in a line: Body weights and tolerability of mice given Rhein orally. In kind it is in vivo, C57BL6 mice. How it is done: as §2
Data set [4] concerns α-SMA. Nature of the data set: α-SMA expression in pancreatic tissues (immunofluorescence, Western blotting), cerulein-treated mice. In kind it is in vivo, C57BL6 mice. Conditions: Rhein oral 50 mg/kg/day for 6 weeks. As to the method:
as §2
For orientation: In western blotting, separated proteins are transferred to a membrane and probed.

The subject of another data set is Tgf-β1. Nature of the data set: Real-time PCR, TGF-β-stimulated LTC-14 cells: Tgf-β1. In kind it is cell-based, rat. Conditions: Rhein at 1, 10 and 100 μM; TGF-β 5 ng/mL.
Text: as §1

Another data set concerns Fn1. As to the kind of experiment: Expression of Fn1 in TGF-β-stimulated LTC-14 cells. In kind it is cell-based, rat. Conditions: recombinant TGF-β.
The subject of data set [5] is LTC-14 cells. As to the kind of experiment: TGF-β induced transformation of PSCs to myofibroblast-like cells (light microscope). In kind it is cell-based, rat. Conditions: TGF-β 5 ng/mL, Rhein 10 μM. How it is done: To study the effect of Rhein on TGF-β induced transformation of PSCs to myofibroblast-like cells, LTC-14 cells were grown at a density of 1×10^5 in a 24-well plate, pre-incubated with TGF-β (5 ng/mL) for 24 hours and treated with or without Rhein (10 μM). At the time of harvest, cells were examined with morphological alterations under a light microscope.

Data set [6] concerns LTC-14 cells. In kind it is cell-based. As to the method: LTC-14 cells were cultured at 37° C. under a humidified condition of 95% air and 5% CO2 in IMDM supplemented with 10% fetal bovine serum (FBS). Cells used in all the experiment were among passages 9 to 22. LTC-14 cells were seeded at a density of 1×10^4/well in a 96-well plate, and incubated with different concentrations of Rhein (dissolved in DMSO) for 24 hours. MTT reagent was added to the cells at the end of the 24-hour treatment period. After a 3-hour reaction time, MTT products were dissolved in DMSO and OD at 570 nm was taken.

Where [7] appears, read: Rhein group: 50 mg/kg/day oral for 6 weeks, no cerulein.

As for `O=C(O)c1cc(O)c2c(c1)C(=O)c1cccc(O)c1C2=O` [Rhein, 9,10-Dihydro-4,5-dihydroxy-9,10-dioxo-2-anthracenecarboxylic acid], the “TGF-β-elevated mRNA expression level of Acta2” value in the data set on Acta2 was “significantly repressed”. Also, the “α-SMA expression (immunofluorescent staining)” value in the data set on α-SMA [1] is “remarkably suppresses”. The “histology of pancreatic tissues (acinar loss, lymphocyte infiltration, fibrosis)” value in data set [2] (CP mice, Rhein oral 50 mg/kg/day, H&E) was “less acinar loss (FIG. 1), lymphocyte infiltration and fibrosis”. Moreover, in data set [2] (cerulein-induced pancreatitis mice, vs Cerulein group), the pancreatic weight entry is given as “significant restoration of pancreatic weight”. In the data set with fibronectin 1 (FN1), the “protein expression levels of fibronectin” value is listed as “remarkably decreased”. Further, the “amounts of collagenous protein” value in the data set with collagen is given as “notably reduced”. For the same compound, in the data set on Col1-α1, the “TGF-β-elevated mRNA expression level of Col1-α1” value was “significantly repressed”. Further, the “TNF-α (ng/mL), Mean” value in the data set with TNF-α (Cer + Rh 3 wk: cerulein plus Rhein 50 mg/kg/day from week 4, 3 weeks) is 32.52# ng/mL; in the data set on TNF-α (Cer + Rh 6 wk: cerulein plus Rhein 50 mg/kg/day for 6 weeks), 31.18# ng/mL; with TNF-α (setting [7]) it was 14.43 ng/mL. The “Body wt (g), Mean” value in data set [3] (Cer + Rh 3 wk: cerulein injections plus Rhein 50 mg/kg/day from week 4, 3 weeks) is recorded as 24.07* g; in data set [3] (Cer + Rh 6 wk: cerulein injections plus Rhein 50 mg/kg/day oral gavage for 6 weeks) it was 23.98* g; in data set [3] (setting [7]), 26.10 g. Moreover, in data set [3] (oral administration, animal study), the adverse effects entry is reported as “no adverse effects”. In the data set on α-SMA [4], the “expression of α-SMA in the pancreatic tissues” value was “significantly inhibits”. In the data set with Tgf-β1, the “TGF-β-elevated mRNA expression level of Tgf-β1” value was “significantly repressed”. In addition, the “TGF-β-stimulated expression level of Fn1” value with Fn1 is recorded as “suppresses”. Moreover, the “transformation of LTC-14 cells into myofibroblast-like phenotype” value in the data set on LTC-14 cells [5] is reported as “represses the transformation”. For the same compound, in the data set with LTC-14 cells [6] (in vitro, dose-dependent), the PSC proliferation entry was “suppress PSC proliferation”. Besides, the “LD50 (cytotoxicity)” value with LTC-14 cells [6] (rat, 24 h) is on record as “approximately 130 μM”.
